Results published in patent publication US6706686B2, “Inhibition of histone deacetylase as a treatment for cardiac hypertrophy” (The Regents of the University of Colorado, priority 2001, dated 2004).
Entries after “also recorded” stand apart in the source; their conditions may differ.

Assays:
[1] = tested on: ANF, αSK-actin, αMyHC, βMyHC RNA in cardiomyocytes; assay: RNA dot blot of fetal gene program; type: cell-based, rat
Experimental: FIGS. 5A-B. Treatment of cardiomyocytes with HDAC inhibitors blocks the fetal gene program associated with cardiomyocyte hypertrophy. […] The graphs represent three or more independent experiments.
Dot Blot analysis. Total RNA was isolated from cardiomyocytes that were either untreated, treated with phenylephrine, treated with TSA, or co-treated with phenylephrine and TSA. One microgram of RNA was blotted onto Nitrocellulose (Bio-Rad, Hercules, Calif.) and hybridized at 50° C. for 14 hrs with end-labeled oligos. (ANF, 5′-[…]-3, SEQ ID NO 1; αSK actin5′-[…]-3′, SEQ ID NO2; αMyHC,5′[…]-3′, SEQ ID NO 3; βMyHC5′-[…]-3′, SEQ ID NO 4; GAPDH5′-[…]-3′, SEQ ID NO 5). The blots were washed twice in 2×SSC/0.5% SDS solution and exposed to film (Kodak, Rochester, N.Y.) or phosphoimager (Amersham Bioscience, Sunnyvale, Calif.). The intensity of the hybridization of the probes was measured using ImageQuant® (Amersham Bioscience, Sunnyvale, Calif.).

ANF locus / NRSE = conditions: prior data; cited from earlier work
[2] = tested on: ANF promoter in neonatal rat cardiomyocytes; assay: ANF promoter transcription (luciferase) assay; type: cell-based
Experimental: FIGS. 3A-D. HDAC inhibitors block the activation of ANF reporter by phenylphrine without cytotoxicity. Neonatal rat cardiomyocytes were co-transfected with a total of 1 μg of the mouse 3 kb ANF promoter fragment and CMV-Lac Z plasmids. (FIG. 3A) The ANF promoter is minimally active in unstimulated cardiomyocytes. […] (FIG. 3B) Lac Z expression by the constitutive promoter CMV. Treatment with HDAC inhibitors augmented CMV activity with and without phenylephrine co-treatment. (FIGS. 3C and 3D) The graphs show the measurements of adenylate kinase activity remains constant in the medium after […] of culturing cardiomyocytes in the absence or presence of hypertrophic stimulants FBS, PE or ET-1.
Cardiomyocyte isolation. Hearts were harvested from 15-day timed-pregnant female Sprague-Dawley rats (Harlan, Houston, Tex.). After mincing in phosphate-buffered saline, cardiomyocytes were isolated from successive digestion fractions of 0.1% (w/v) Pancreatin (Sigma, St. Louis, Mo.) solution. Fractions were collected; resuspended in plating medium, pooled; and then plated for 2 hours to separate fibroblasts from cardiomyocyte population. Suspended cells were recollected and plated in 6-well dishes at 1×10^6 cells/well for transfection and immunofluorescence experiments, and 2×10^6 cells in 10 cm dishes for RNA analysis.
Transcription assay. Twenty-four hours after plating, cells were transfected with total of 1 μg/ml for 5 hrs using Lipofectamine Plus reagent (Invitrogen, Carlsbad, Calif.). Transfected cells were incubated 24 hrs then treated for an additional 24 hrs. Cells were lysed and their lysates assayed with the Luciferase Assay System (Promega, Madison, Wis.) for luminescence using Lucysoft 2 luminometer (Rosys Anthos, New Castle, Del.).

cardiomyocytes [3] = assay: Immunostaining for ANF protein and α-actinin (sarcomere); type: cell-based, rat
Experimental: Immunostaining. Glass coverslips were coated with laminin (Invitrogen, Carlsbad, Calif.) by solublizing laminin in 1× PBS (40 μg/ml), by dipping the coverslips in the solution and by allowing them to air-dry. Cells were treated for 24 hrs, washed, fixed 10 min. with 3.7% formaldehyde, washed with 1× PBS and permeabolized with 1× PBS containing 3% BSA and 0.1% NP-40 (Sigma, St. Louis, Mo.). Primary Antibodies were in 1× PBS containing 3% BSA and 0.1% NP-40 for 30 min, then washed three times in 1× PBS. The secondary FITC or TRITC antibodies (Vector Laboratories, Inc., Burlingame, Calif.) were incubated (1:200) in same buffer solution as the primary antibodies, then washed in 1× PBS, covered and subsequently visualized. Images were captured using a digital camera (Hamamatsu Photonics, Hamamatsu City, Japan).

ras transformed cells = conditions: Taunton et al., 1996; cited from earlier work
cardiomyocytes [4] = assay: Protein synthesis (tritiated leucine, S6 ribosomal protein); type: cell-based, rat
Experimental: FIG. 6. The effects of TSA treatment on the reorganization of the sarcomeres and protein synthesis. […] The graphs on the right show the content of S6 ribosome protein in cardiomyocytes after 24 hours co-treatment with PE and increasing concentrations of TSA or with serum and increasing concentrations of TSA.
Protein synthesis. Cardiomyocytes were incubated with (1.0 μCi/ml; 172 Ci/mmol sp. activity) tritiated-leucine (ICN Biochemicals, Inc., Irvine, Calif.) in treated RPMI media (Invitrogen, Carlsbad, Calif.). After 6 hrs incubation, the cells were washed twice with 1× PBS, then incubated in 10% TCA on ice for 30 min. Afterwards, the cells were washed twice with 5% TCA, once with water, and then lysed in […]. Lysates were measured in one-sixth volume of scintillation fluid by a scintillation counter (Beckman, Fullerton, Calif.).
S6 Ribosomal protocol. After blocking, cells were incubated in 1% BSA/1× PBS containing 50 μg/ml anti-S6 protein (Cell Signaling, […]) for 1 hr. After washing, the cells were incubated with IgG-HRP (Jackson Labs, […]) at a 1:400 dilution. The cells were then washed twice in 1% BSA/1× PBS, in 1× PBS, then blotted dry. Luminol (Pierce, Rockford, Ill.) was added and the chemiluminescence was detected in a Fusion reader (Perkin-Elmer/Packard).

For `CC(/C=C/C(=O)NO)=C\[C@@H](C)C(=O)c1ccc(N(C)C)cc1` [TSA, Trichostatin A], the αMyHC expression ([1]; TSA treatment) was “induced the expression of αMyHC; also recorded: stimulated the expression of αMyHC”, the “phenylephrine-induced endogenous ANF RNA expression” value ([1]; phenylephrine 100 μM, TSA 85 nM, sodium butyrate 5 mM, HC-toxin 5 ng/ml) was “prevented the phenylephrine-induced ANF response; also recorded: blocks the accumulation of ANF message” and the “phenylephrine-induced αSK-actin expression” value ([1]; phenylephrine co-treatment) was “suppression of other genes activated by the hypertrophic stimulant; also recorded: lack of gene activation”. For the same compound, the “phenylephrine-induced βMyHC expression” value ([1]; phenylephrine co-treatment) was “down-regulating the fetal myosin chain isoform; also recorded: prevented the activation of βMyHC”, the “ANF expression at low dose” value (ANF locus / NRSE) was “can induce the ANF expression” and the “activation of ANF promoter by phenylephrine” value ([2]; phenylephrine 100 μM, TSA 85 nM, NaBut 5 mM, HC-toxin 5 ng/ml) was “did block the promoter's activation by phenylephrine treatment completely; also recorded: prevented the activation of the ANF promoter”. The “ANF promoter activity, inhibitor alone” value ([2]; unstimulated cardiomyocytes) was “did not activate the ANF promoter”, the “ANF protein accumulation, inhibitor alone” value (cardiomyocytes [3]; 24 hrs) was “lacked accumulation of ANF protein” and the cell size (cardiomyocytes [3]; TSA alone) was “did not change size”. For the same compound, the “organization of the sarcomere (α-actinin), inhibitor alone” value (cardiomyocytes [3]; TSA alone) was “lacked organization of the sarcomere”, the “organization of the sarcomere with growth stimulants” value (cardiomyocytes [3]; phenylephrine, serum or ET-1) was “lacked fully organized sarcomeres” and the “ANF protein accumulation induced by phenylephrine or serum” value (cardiomyocytes [3]; with phenylephrine or serum) was “dramatically reduced ANF protein accumulation”. The acetylation (ras transformed cells) was “induce hyperacetylation”, the “morphology of ras transformed cells” value (ras transformed cells) was “cause reversion of ras transformed cells to normal morphology” and the “phenylephrine-stimulated protein synthesis, 6 hours” value (cardiomyocytes [4]; 6 hours co-culture with phenylephrine) was “had little effect on the stimulation of protein synthesis; also recorded: does not alter this increase”. The “protein synthesis induced by PE or serum, 24 hrs” value (cardiomyocytes [4]; 24 hrs co-treatment) was “antagonized the protein synthesis normally induced by PE or serum in a dose-dependent manner”.
